Measurements taken from ChEMBL document CHEMBL5608179, “Triptonide induces apoptosis and inhibits the proliferation of ovarian cancer cells by activating the p38/p53 pathway and autophagy” (Bioorg Med Chem, 2024).
Calls of active or inactive are those of the source. No cut-off for these calls is given here.

Tests used:
A2780 [1] = assay: Induction of apoptosis in human A2780 cells assessed as late apoptotic cells in presence of p53 SiRNA 1 at 4 nM measured after 24 hrs by Annexin V-FITC/PI flow cytometry (reference value: 2.54%); format: functional
A2780 [2] = assay: Induction of apoptosis in human A2780 cells assessed as increase in cleaved caspase 9 level measured after 12 to 48 hrs by Western blot analysis; format: functional, cell-based; settings: dose 5-20 nM, time 12-48 hrs
A2780 [3] = assay: Induction of cell cycle arrest in human A2780 cells assessed as accumulation of cells at G1 phase at 2 nM measured after 24 hrs by PI staining based ell Cycle Analysis Kit (KeyGEN) (reference value: 53.9%); format: functional
A2780 [4] = assay: Cytotoxicity against human A2780 cells assessed as cell viability measured after 24 to 72 hrs by MTT assay; format: functional, cell-based; settings: dose 4-64 nM, time 24-72 hrs
A2780 [5] = assay: Induction of cell cycle arrest in human A2780 cells assessed as accumulation of cells at G2 phase at 2 nM measured after 24 hrs by PI staining based ell Cycle Analysis Kit (KeyGEN) (reference value: 22.2%); format: functional
A2780 [6] = assay: Cytotoxicity against human A2780 cells assessed as cell viability in presence of p53 SiRNA 1 measured after 48 hrs by MTT assay; format: functional, cell-based
A2780 [7] = assay: Cytotoxicity against human A2780 cells assessed as cell viability in presence of p53 SiRNA 2 measured after 48 hrs by MTT assay; format: functional, cell-based
A2780 [8] = assay: Induction of cell cycle arrest in human A2780 cells assessed as accumulation of cells at G1 phase at 4 nM measured after 24 hrs by PI staining based ell Cycle Analysis Kit (KeyGEN) (reference value: 53.9%); format: functional
A2780 [9] = assay: Induction of apoptosis in human A2780 cells assessed as increase in cleaved PARP level measured after 12 to 48 hrs by Western blot analysis; format: functional, cell-based; settings: dose 5-20 nM, time 12-48 hrs
A2780 [10] = assay: Induction of cell cycle arrest in human A2780 cells assessed as accumulation of cells at G1 phase in presence of SB203580 at 4 nM measured after 24 hrs by PI staining based Cell Cycle Analysis Kit (KeyGEN) (reference value: 54.2%); format: functional
A2780 [11] = assay: Antiproliferative activity against human A2780 cells assessed as number of fluorescent dots in presence of p53 SiRNA 2 at 4 nM measured after 24 hrs by KitkFluor555 Click-iT EdU Kit staining assay; format: functional, cell-based
A2780 [12] = assay: Induction of cell cycle arrest at S phase in human A2780 cells assessed as increase in cyclin E1 proteins in presence of SB203580 measured at 10 nM after 24 hrs by Western blot analysis; format: functional, cell-based
A2780 [13] = assay: Induction of apoptosis in human A2780 cells assessed as decrease in cleaved Bcl-2 level measured at 5 to 20 nM after 12 to 48 hrs by Western blot analysis; format: functional, cell-based; settings: dose 5-20 nM, time 12-48 hrs
A2780 [14] = assay: Induction of p38 expression in human A2780 cells at 5 to 20 nM measured after 24 hrs by Western blot analysis; format: functional, cell-based; settings: dose 5-20 nM
A2780 [15] = assay: Induction of cell cycle arrest in human A2780 cells assessed as accumulation of cells at G2 phase at 4 nM measured after 24 hrs by PI staining based Cell Cycle Analysis Kit (KeyGEN) (reference value: 24.5%); format: functional
A2780 [16] = assay: Induction of apoptosis in human A2780 cells assessed as early apoptotic cells in presence of p53 SiRNA 2 at 4 nM measured after 24 hrs by Annexin V-FITC/PI flow cytometry (reference value: 2.82%); format: functional
A2780 [17] = assay: Induction of apoptosis in human A2780 cells assessed as viable cells in presence of bafilomycin A1 at 800 nM measured after 24 hrs by Annexin V-FITC/PI flow cytometry (reference value: 96.1%); format: functional
A2780 [18] = assay: Cytotoxicity against human A2780 cells assessed as cell viability measured in presence of SB203580 after 48 hrs by MTT assay; format: functional, cell-based
A2780 [19] = assay: Induction of cell cycle arrest at S phase in human A2780 cells assessed as increase in cyclin B1 proteins in presence of SB203580 measured at 10 nM after 24 hrs by Western blot analysis; format: functional, cell-based
A2780 [20] = assay: Cytotoxicity against human A2780 cells assessed as cell viability in presence of bafilomycin A1 upto 60 nM measured after 48 hrs by MTT assay; format: functional, cell-based
A2780 [21] = assay: Inhibition of colony formation in human A2780 cells at 0.25 to 0.5 uM incubated for 24 hrs by EdU staining based assay; format: functional, cell-based; settings: dose 0.25-0.5 µM
A2780 [22] = assay: Induction of cell cycle arrest in human A2780 cells assessed as accumulation of cells at S phase at 2 nM measured after 24 hrs by PI staining based ell Cycle Analysis Kit (KeyGEN) (reference value: 10%); format: functional
A2780 [23] = assay: Induction of cell cycle arrest in human A2780 cells assessed as accumulation of cells at S phase in presence of SB203580 at 4 nM measured after 24 hrs by PI staining based Cell Cycle Analysis Kit (KeyGEN) (reference value: 15%); format: functional
A2780 [24] = assay: Induction of cell cycle arrest in human A2780 cells assessed as accumulation of cells at G1 phase at 4 nM measured after 24 hrs by PI staining based Cell Cycle Analysis Kit (KeyGEN) (reference value: 54.2%); format: functional
A2780 [25] = assay: Induction of apoptosis in human A2780 cells assessed as increase in cleaved caspase 3 level measured after 12 to 48 hrs by Western blot analysis; format: functional, cell-based; settings: dose 5-20 nM, time 12-48 hrs
A2780 [26] = assay: Induction of apoptosis in human A2780 cells assessed as necrotic cells in presence of p53 SiRNA 2 at 4 nM measured after 24 hrs by Annexin V-FITC/PI flow cytometry (reference value: 0.39%); format: functional
[27] = target: Cellular tumor antigen p53 (Homo sapiens) (UniProt P04637); assay: Activation of p53 in human A2780 cells assessed as increase phosphorylation of p38 at 5 to 20 nM measured after 24 hrs by Western blot analysis; format: cell-based; settings: filed as activator, dose 5-20 nM
Chain of Cellular tumor antigen p53 (Homo sapiens) (P04637 whole entry, looked up): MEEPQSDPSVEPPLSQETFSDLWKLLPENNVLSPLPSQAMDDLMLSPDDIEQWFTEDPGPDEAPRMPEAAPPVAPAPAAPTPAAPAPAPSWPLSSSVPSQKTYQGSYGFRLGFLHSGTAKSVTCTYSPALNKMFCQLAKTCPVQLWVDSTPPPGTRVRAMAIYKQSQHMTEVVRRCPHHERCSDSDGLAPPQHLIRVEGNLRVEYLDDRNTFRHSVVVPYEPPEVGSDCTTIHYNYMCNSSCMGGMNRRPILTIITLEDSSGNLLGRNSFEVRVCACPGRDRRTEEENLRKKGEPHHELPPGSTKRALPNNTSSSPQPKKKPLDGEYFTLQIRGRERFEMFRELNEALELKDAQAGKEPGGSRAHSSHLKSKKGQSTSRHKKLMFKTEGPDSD

A2780 [28] = assay: Induction of LC3II expression in human A2780 cells at 5 to 20 nM measured after 24 hrs by Western blot analysis; format: functional, cell-based; settings: dose 5-20 nM

CC(C)[C@]12O[C@H]1[C@@H]1O[C@]13[C@]1(O[C@H]1C[C@H]1C4=C(CC[C@@]13C)C(=O)OC4)[C@@H]2O [TRIPTOLIDE]
Activity (A2780 [1]): 14.3% | Activity (A2780 [2]): Dose-Dependent Effect | Activity (A2780 [3]): 62.6% | Activity (A2780 [4]): Dose-Dependent Effect | Activity (A2780 [5]): 15.3% | Activity (A2780 [6]): inactive | Activity (A2780 [7]): inactive | Activity (A2780 [8]): 68.9% | Activity (A2780 [9]): Dose-Dependent Effect | Activity (A2780 [10]): 48.7% | Activity (A2780 [11]): inactive | Activity (A2780 [12]): inactive | Activity (A2780 [13]): Dose-Dependent Effect | Activity (A2780 [14]): Active | Activity (A2780 [15]): 27.4% | Activity (A2780 [16]): 12.6% | Activity (A2780 [17]): 90.3% | Activity (A2780 [18]): inactive | Activity (A2780 [19]): inactive | Activity (A2780 [20]): inactive | inhibition (A2780 [21]): Active | Activity (A2780 [22]): 19.9% | Activity (A2780 [23]): 19.3% | Activity (A2780 [24]): 40% | Activity (A2780 [25]): Dose-Dependent Effect | Activity (A2780 [26]): 6.47% | Activity [27]: Active | Activity (A2780 [28]): Active
